Measured values from patent publication US20040180959A1, “Gabapentin analogues for fibromy algia and concomitant disorders” (priority 2002, published 2004).

Tests used:
Type in all cases: in vivo
[1] = test system: Wistar rats; experiment: Water-lick (Vogel) Conflict Test in rats; conditions: for Percent of Animals Tested With >20 Shock Episodes / Mean Shock Episodes (1 mA): pretreatment 120 minutes; for Mean Shock Episodes (1 mA): Mean ± SEM
Experimental: In each experiment, naive adult male Wistar rats between 170 to 200 g were randomly divided into groups (N=10-30/group) and deprived of water for 48 hours prior to testing. Food was available on Day 1 and removed 24 hours prior to test Day 2.
Apparatus: The modular operant test cage (Coulbourn Instruments) measures 10.25×12×12 in. The test chambers feature 3 modular bays on each side of the cage for a total of 6 bays. A module optical lickometer is mounted on one side of the chamber 5 cm above the grid floor. The lickometer is used to measure licking-drinking from a water bottle mounted outside the test chamber. A photo beam is piped via glass rods to the tip of the drink tube across a gap at the end of the tube. The animals tongue breaks the beam on each lick. The front and back of the test chamber is made of clear Plexiglas. The front door is covered to reduce distractions from inside the test room. The back of the test chamber is facing a wall, away from the flow of traffic within the testing room and remains uncovered to provide the opportunity for observations during testing. Shocks are delivered using a (Coulbourn) programmable universal shocker calibrated to deliver a 1 mA shock for 1 second through the drink tube.
Procedure: On Day 1, after a 24-hour water deprivation, experimental subjects were placed into the test chambers and allowed to drink unpunished. Drinking was limited to 500 responses or approximately 5 mL of water during a 10 minute session. Immediately following the unpunished drinking session, rats were returned to their home cages, deprived of water for an additional 24 hours and was food deprived. […] After the pretreatment period rats were placed into a test chamber and allowed to drink for 10 minutes. After every 10 licks, rats received a 1-second shock (1 mA) through the drink tube. Thus, a conflict or anxiety-producing situation exists. Rats are motivated to drink; however, they are inhibited by the shock. Anxiety is reflected by the low amounts of drinking. Standard anxiolytic drugs produce effects that allow rats to overcome this behavioral inhibition and drink despite the shock.
All data were analyzed using a Kruskal-Wallis one Way Analysis of Variance on Ranks and Mann-Whitney Rank Sum Tests.
Quantitative Analysis: A quantitative analysis represents the percentage of subjects within a treatment group that receives >20 shock episodes during a test session. This number provides a quantitative comparison regarding the distribution of the responses.
(§1) Compound A was dissolved in water and tested orally as a solution from 0.3 to 100 mg/kg in rats and 3 to 300 mg/kg in mice. Dosages are expressed as the active moiety and were administered in a volume of 1 mL/kg for rats and 10 mL/kg for mice.

[2] = test system: CD-1 mice; experiment: Tail Suspension Test (TST) in mice; conditions: 2 hours after treatment
Experimental: The anxiolytic and antidepressant activity of (3S, 4S)-(1-Aminomethyl-3,4-dimethyl-cyclopentyl)-acetic acid (“Compound A”) was assessed using the Tail Suspension Test (TST) in mice, and in the Water-lick (Vogel) Conflict Test (WLC) in rats. The Vogel test is a recognized test procedure for assessing the potential anxiolytic utility. The TST procedure is a behavior despair paradigm used to assess potential antidepressant activity.
The method consisted of suspending mice by a piece of cellophane tape attached to the distal end of the tail for 6 minutes. Animals (CD-1 mice, weighing 22 to 27 g, from Charles River Labs) were tested. The test apparatus was the TST-2™ (ITEM-Labo, Le Kremmlin-Bicetre Cedex, France). Data were analyzed with analysis of variance (ANOVA) and Tukey's Multiple Range Test or Student's t-test.
as §1
The profile of typical […] activity in the TST consists of […]. Compound A and pregabalin were tested concurrently (PO) 2 hours after treatment. Compound A was administered at doses ranging from 3 to 100 mg/kg and pregabalin was tested from 3-300 mg/kg and served as positive control (Table 1). Compound A dose dependently increases immobility with the MED observed at the 3 mg/kg dosage and maximal effects were seen following the 30 mg/kg dose.

[3] = test system: mice; experiment: Inverted Screen Test to assess coordination; conditions: doses up to 100 mg/kg PO, immediately following the TST, 1-minute trial
Experimental: Immediately following the TST, mice were also tested in the Inverted Screen Test to assess coordination. Animals were given a 1-minute trial in which they had to climb to the top of the inverted screen or to simply hang on and not fall off.

[4] = doses 3× and 10× the Vogel MED (10 and 30 mg/kg)
[5] = oral, 2 hour pretreatment, rats

Compound: C[C@H]1CC(CN)(CC(=O)O)C[C@@H]1C [Compound A, (3S, 4S)-(1-Aminomethyl-3,4-dimethyl-cyclopentyl)-acetic acid]
- Percent of Animals Tested With >20 Shock Episodes ([1]; 0.3 mg/kg PO): 20%
- Mean Shock Episodes (1 mA) ([1]; 0.3 mg/kg PO): 16.5 ± 8.7
- Percent of Animals Tested With >20 Shock Episodes ([1]; 1 mg/kg PO): 10%
- Mean Shock Episodes (1 mA) ([1]; 1 mg/kg PO): 11.7 ± 4.2
- Percent of Animals Tested With >20 Shock Episodes ([1]; 3 mg/kg PO): 17%
- Mean Shock Episodes (1 mA) ([1]; 3 mg/kg PO): 16.7 ± 4.3
- Shock episodes (time-course) ([1]; 3 mg/kg, 1 hr post treatment): 38.8 ± 12.2
- Shock episodes (time-course) ([1]; 3 mg/kg, 2 hr post treatment): 55.7 ± 12.7
- Shock episodes (time-course) ([1]; 3 mg/kg, 4 hr post treatment): 38.4 ± 12.2
- Shock episodes (time-course) ([1]; 3 mg/kg, 6 hr post treatment): 44.7 ± 13.3
- Shock episodes (time-course) ([1]; 3 mg/kg, 8 hr post treatment): 7.7 ± 1.2
- Percent of Animals Tested With >20 Shock Episodes ([1]; 10 mg/kg PO): 43%
- Mean Shock Episodes (1 mA) ([1]; 10 mg/kg PO): 33.8 ± 6.2
- Shock episodes (time-course) ([1]; 10 mg/kg, 30 min. post treatment): 14.1 ± 3.1
- Shock episodes (time-course) ([1]; 10 mg/kg, 1 hr post treatment): 28.2 ± 7.6
- Shock episodes (time-course) ([1]; 10 mg/kg, 2 hr post treatment): 29.6 ± 8.0
- Shock episodes (time-course) ([1]; 10 mg/kg, 4 hr post treatment): 47.7 ± 11.7
- Shock episodes (time-course) ([1]; 10 mg/kg, 6 hr post treatment): 38.4 ± 13.2
- Percent of Animals Tested With >20 Shock Episodes ([1]; 30 mg/kg PO): 67%
- Mean Shock Episodes (1 mA) ([1]; 30 mg/kg PO): 46.3 ± 7.6
- Shock episodes (time-course) ([1]; 30 mg/kg, 30 min. post treatment): 35.8 ± 12.6
- Shock episodes (time-course) ([1]; 30 mg/kg, 1 hr post treatment): 93.3 ± 12.1
- Shock episodes (time-course) ([1]; 30 mg/kg, 2 hr post treatment): 88.4 ± 7.4
- Shock episodes (time-course) ([1]; 30 mg/kg, 4 hr post treatment): 73.5 ± 12.2
- Shock episodes (time-course) ([1]; 30 mg/kg, 6 hr post treatment): 97.4 ± 11.1
- Percent of Animals Tested With >20 Shock Episodes ([1]; 100 mg/kg PO): 90%
- Mean Shock Episodes (1 mA) ([1]; 100 mg/kg PO): 52.8 ± 10.9
- Time of peak activity after treatment ([1]; 10 and 30 mg/kg respectively): 4 to 6 h
- Activity maintained through ([1]; MED dose 3 mg/kg): 6 h
- Onset of activity after treatment ([1]; MED dose 3 mg/kg): 2 h
- Time of peak activity ([1]; MED dose 3 mg/kg): 2 h
- Activity maintained through [1, 4]: 6 h
- Onset of activity after treatment [1, 4]: 1 h
- Dose of maximal anti-conflict effects [1, 5]: 100 mg/kg
- MED for anti-conflict activity [1, 5]: 3 mg/kg
- Immobility, % Percent of control ([2]; 3 mg/kg PO): 126.8 ± 7.0 %
- Power of Movement, % Percent of control ([2]; 3 mg/kg PO): 70.7 ± 10.3%
- Immobility, % Percent of control ([2]; 10 mg/kg PO): 143.7 ± 11.0 %
- Power of Movement, % Percent of control ([2]; 10 mg/kg PO): 60.8 ± 11.4%
- Immobility, % Percent of control ([2]; 30 mg/kg PO): 185.9 ± 7.0 %
- Power of Movement, % Percent of control ([2]; 30 mg/kg PO): 46.4 ± 12.3 %
- Immobility, % Percent of control ([2]; 100 mg/kg PO): 182.4 ± 5.9 %
- Power of Movement, % Percent of control ([2]; 100 mg/kg PO): 50.5 ± 18.3 %
- Dose of maximal effects on immobility ([2]; PO): 30 mg/kg
- MED for increasing immobility ([2]; PO): 3 mg/kg
- Power of movement parameter (effect in words) ([2]; PO): decreased at the 30 and 100 mg/kg dosages
- Screen fall-off [3]: did not cause animals to fall off
